Source: patent EP4722207A1, “OXOISOINDOLINYL-SUBSTITUTED TETRAHYDROPYRIMIDINEDIONE DERIVATIVE AND USE THEREOF” (Gluetacs Therapeutics (Shanghai) Co., Ltd., priority 2023, dated 2024)

Experiments:
Type in all cases: cell-based
Settings in all cases: compounds at 50 nM and 500 nM, 24 hours
WEE1 = target: T1, WEE1 (Homo sapiens, UniProt P30291+Q96SW2); test: Western-blot assay, substrate protein degradation in hPBMCs: WEE1
T1 construct: effects of the compounds of the present disclosure on the expression of target proteins in cells; endogenous in cells; host or cells: human PBMCs (hPBMCs)
T1 sequence (P30291 whole entry): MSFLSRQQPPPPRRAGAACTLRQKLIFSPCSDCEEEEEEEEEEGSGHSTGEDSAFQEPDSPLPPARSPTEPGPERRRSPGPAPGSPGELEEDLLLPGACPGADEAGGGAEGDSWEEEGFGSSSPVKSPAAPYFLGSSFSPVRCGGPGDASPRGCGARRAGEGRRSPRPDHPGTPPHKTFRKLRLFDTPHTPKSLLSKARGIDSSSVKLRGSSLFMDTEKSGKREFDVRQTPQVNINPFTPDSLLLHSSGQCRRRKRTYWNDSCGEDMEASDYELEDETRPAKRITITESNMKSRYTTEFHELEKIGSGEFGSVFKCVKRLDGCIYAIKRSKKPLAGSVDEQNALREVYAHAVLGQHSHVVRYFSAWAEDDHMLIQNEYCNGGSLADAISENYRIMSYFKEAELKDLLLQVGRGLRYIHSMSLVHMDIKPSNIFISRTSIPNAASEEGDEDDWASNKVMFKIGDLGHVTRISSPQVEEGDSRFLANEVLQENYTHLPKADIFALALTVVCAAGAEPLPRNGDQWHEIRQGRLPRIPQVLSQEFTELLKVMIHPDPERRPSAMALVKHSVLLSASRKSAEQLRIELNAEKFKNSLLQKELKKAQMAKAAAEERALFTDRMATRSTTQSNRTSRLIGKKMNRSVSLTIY
T1 sequence (Q96SW2 whole entry): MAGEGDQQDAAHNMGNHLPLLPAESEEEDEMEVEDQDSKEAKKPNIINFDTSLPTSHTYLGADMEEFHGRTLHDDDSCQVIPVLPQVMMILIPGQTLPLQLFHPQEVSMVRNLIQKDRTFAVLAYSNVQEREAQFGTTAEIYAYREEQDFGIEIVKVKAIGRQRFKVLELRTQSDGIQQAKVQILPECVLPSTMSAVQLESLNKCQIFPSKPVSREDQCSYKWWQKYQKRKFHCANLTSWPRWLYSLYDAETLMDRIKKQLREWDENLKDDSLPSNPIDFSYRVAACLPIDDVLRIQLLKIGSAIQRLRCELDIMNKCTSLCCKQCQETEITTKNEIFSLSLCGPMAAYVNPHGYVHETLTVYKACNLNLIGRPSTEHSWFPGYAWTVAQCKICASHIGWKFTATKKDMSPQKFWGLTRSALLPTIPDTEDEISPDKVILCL
T1 sequence (Q16531 whole entry partner): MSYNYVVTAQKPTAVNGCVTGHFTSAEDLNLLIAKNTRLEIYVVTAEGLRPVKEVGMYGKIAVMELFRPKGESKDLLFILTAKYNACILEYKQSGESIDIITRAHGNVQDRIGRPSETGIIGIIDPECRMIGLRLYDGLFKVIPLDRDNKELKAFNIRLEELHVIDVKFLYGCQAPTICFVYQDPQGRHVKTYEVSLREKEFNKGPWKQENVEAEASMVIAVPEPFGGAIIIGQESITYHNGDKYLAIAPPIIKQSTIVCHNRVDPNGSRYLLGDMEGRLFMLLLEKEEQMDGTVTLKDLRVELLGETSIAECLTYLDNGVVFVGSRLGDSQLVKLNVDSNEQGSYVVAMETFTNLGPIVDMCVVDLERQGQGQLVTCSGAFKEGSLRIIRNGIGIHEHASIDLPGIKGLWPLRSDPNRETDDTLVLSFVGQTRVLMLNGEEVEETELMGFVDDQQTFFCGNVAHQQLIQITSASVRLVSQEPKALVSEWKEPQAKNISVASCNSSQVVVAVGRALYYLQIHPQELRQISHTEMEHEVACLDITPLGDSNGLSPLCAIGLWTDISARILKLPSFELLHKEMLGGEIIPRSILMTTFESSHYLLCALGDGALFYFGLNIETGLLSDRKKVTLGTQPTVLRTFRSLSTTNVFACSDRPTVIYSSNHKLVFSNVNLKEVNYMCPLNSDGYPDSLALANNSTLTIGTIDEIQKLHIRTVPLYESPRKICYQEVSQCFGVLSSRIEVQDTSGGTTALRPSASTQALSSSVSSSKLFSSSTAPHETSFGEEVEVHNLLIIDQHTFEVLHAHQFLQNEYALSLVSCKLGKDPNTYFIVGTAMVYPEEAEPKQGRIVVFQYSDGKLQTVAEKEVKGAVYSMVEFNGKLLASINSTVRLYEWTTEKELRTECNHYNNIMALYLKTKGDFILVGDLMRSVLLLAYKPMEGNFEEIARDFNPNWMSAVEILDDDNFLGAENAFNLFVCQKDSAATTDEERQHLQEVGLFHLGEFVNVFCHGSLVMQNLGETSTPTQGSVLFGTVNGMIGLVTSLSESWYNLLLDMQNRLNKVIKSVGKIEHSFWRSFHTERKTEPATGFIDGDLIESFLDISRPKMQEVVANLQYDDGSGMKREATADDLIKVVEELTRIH

IKZF1 = target: T2, IKZF1 (Homo sapiens, UniProt Q13422+Q96SW2); test: Western-blot assay, substrate protein degradation in hPBMCs: IKZF1
T2 construct: effects of the compounds of the present disclosure on the expression of target proteins in cells; endogenous in cells; host or cells: human PBMCs (hPBMCs)

IKZF2 = target: T3, IKZF2 (Homo sapiens, UniProt Q96SW2+Q9UKS7); test: Western-blot assay, substrate protein degradation in hPBMCs: IKZF2
T3 construct: effects of the compounds of the present disclosure on the expression of target proteins in cells; endogenous in cells; host or cells: human PBMCs (hPBMCs)
T3 sequence (Q9UKS7 whole entry): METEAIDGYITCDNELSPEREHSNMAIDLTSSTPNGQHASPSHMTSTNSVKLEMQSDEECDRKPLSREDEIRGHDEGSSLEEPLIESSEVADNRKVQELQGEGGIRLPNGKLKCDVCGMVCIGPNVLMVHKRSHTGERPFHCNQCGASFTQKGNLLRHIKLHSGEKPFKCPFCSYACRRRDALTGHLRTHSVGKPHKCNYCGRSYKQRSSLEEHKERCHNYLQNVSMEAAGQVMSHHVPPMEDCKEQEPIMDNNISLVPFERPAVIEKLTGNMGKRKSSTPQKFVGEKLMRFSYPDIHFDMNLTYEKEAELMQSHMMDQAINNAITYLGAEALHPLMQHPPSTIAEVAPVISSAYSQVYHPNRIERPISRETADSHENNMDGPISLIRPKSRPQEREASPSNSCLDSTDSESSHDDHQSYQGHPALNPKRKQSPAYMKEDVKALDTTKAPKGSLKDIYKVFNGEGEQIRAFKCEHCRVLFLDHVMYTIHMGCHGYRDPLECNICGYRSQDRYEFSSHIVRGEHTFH
T3 sequence (Q96SW2 whole entry): as the sequence (Q96SW2 whole entry) above
T3 sequence (Q16531 whole entry partner): as the sequence (Q16531 whole entry partner) above

IKZF3 = target: T4, IKZF3 (Homo sapiens, UniProt Q96SW2+Q9UKT9); test: Western-blot assay, substrate protein degradation in hPBMCs: IKZF3
T4 construct: effects of the compounds of the present disclosure on the expression of target proteins in cells; endogenous in cells; host or cells: human PBMCs (hPBMCs)
T4 sequence (Q9UKT9 whole entry): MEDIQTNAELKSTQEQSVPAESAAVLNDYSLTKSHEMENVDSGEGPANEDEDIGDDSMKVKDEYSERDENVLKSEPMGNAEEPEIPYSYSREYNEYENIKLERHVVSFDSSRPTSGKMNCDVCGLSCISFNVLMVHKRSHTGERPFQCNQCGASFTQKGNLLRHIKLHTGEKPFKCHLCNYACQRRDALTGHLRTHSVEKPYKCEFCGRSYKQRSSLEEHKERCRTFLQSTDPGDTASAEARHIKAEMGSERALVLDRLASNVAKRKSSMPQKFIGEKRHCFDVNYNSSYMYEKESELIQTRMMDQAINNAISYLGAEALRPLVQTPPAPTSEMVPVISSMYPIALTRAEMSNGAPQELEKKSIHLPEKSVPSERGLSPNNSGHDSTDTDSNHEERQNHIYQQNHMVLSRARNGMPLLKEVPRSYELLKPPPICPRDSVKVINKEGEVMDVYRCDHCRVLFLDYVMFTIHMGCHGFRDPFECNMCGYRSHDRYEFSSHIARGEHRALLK
T4 sequence (Q96SW2 whole entry): as the sequence (Q96SW2 whole entry) above
T4 sequence (Q16531 whole entry partner): as the sequence (Q16531 whole entry partner) above

CK1α = target: T5, CK1α (Homo sapiens, UniProt P48729+Q96SW2); test: Western-blot assay, substrate protein degradation in hPBMCs: CK1α
T5 construct: effects of the compounds of the present disclosure on the expression of target proteins in cells; endogenous in cells; host or cells: human PBMCs (hPBMCs)
T5 sequence (P48729 whole entry): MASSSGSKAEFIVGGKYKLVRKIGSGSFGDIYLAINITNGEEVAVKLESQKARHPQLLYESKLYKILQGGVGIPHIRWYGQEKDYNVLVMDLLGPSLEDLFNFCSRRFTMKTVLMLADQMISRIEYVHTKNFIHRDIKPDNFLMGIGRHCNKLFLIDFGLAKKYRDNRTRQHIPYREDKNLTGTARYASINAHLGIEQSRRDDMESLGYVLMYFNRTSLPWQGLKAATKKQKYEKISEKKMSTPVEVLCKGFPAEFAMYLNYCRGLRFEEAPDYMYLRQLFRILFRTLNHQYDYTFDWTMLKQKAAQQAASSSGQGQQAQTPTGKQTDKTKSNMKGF
T5 sequence (Q96SW2 whole entry): as the sequence (Q96SW2 whole entry) above
T5 sequence (Q16531 whole entry partner): as the sequence (Q16531 whole entry partner) above

GSPT1 = target: T6, GSPT1 (Homo sapiens, UniProt P15170+Q96SW2); test: Western-blot assay, substrate protein degradation in hPBMCs: GSPT1
T6 construct: effects of the compounds of the present disclosure on the expression of target proteins in cells; endogenous in cells; host or cells: human PBMCs (hPBMCs)
T6 sequence (P15170 whole entry): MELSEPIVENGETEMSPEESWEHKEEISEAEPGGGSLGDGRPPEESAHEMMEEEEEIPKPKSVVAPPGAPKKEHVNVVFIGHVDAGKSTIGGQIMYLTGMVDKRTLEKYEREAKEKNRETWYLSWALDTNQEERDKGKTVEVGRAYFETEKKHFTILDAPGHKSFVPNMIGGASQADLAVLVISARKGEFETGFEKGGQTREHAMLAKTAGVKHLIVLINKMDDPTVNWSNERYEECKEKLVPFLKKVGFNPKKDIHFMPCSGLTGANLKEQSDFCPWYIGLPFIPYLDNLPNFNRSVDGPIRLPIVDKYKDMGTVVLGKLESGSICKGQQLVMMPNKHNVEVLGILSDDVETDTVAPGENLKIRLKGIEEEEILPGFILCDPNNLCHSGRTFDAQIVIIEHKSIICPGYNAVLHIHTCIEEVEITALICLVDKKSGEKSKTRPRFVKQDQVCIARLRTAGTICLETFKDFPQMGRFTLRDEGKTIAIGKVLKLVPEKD
T6 sequence (Q96SW2 whole entry): as the sequence (Q96SW2 whole entry) above
T6 sequence (Q16531 whole entry partner): as the sequence (Q16531 whole entry partner) above

Compound | WEE1 substrate protein remaining % (WEE1) | IKZF1 substrate protein remaining % (IKZF1) | IKZF2 substrate protein remaining % (IKZF2) | IKZF3 substrate protein remaining % (IKZF3) | CK1α substrate protein remaining % (CK1α) | GSPT1 substrate protein remaining % (GSPT1)
O=C1CCN(N2Cc3cc(CN4CCC(c5ccc(Cl)cc5)CC4)ccc3C2=O)C(=O)N1 [GT-06888, 1-(5-((4-(4-chlorophenyl)piperidin-1-yl)methyl)-1-oxoisoindolin-2-yl)dihydropyrimidine-2,4(1H,3H)-dione] | A ("A" is defined as 0% ≤ substrate protein remaining % ≤ 80%) | B ("B" is defined as 80%< substrate protein remaining %≤ 100%) | A ("A" is defined as 0% ≤ substrate protein remaining % ≤ 80%) | B ("B" is defined as 80%< substrate protein remaining %≤ 100%) | B ("B" is defined as 80%< substrate protein remaining %≤ 100%) | A ("A" is defined as 0% ≤ substrate protein remaining % ≤ 80%)
O=C1CCN(N2Cc3cc(CN4CCC(c5ccccc5F)CC4)ccc3C2=O)C(=O)N1 [GT-06889, 1-(5-((4-(2-fluorophenyl)piperidin-1-yl)methyl)-1-oxoisoindolin-2-yl)dihydropyrimidine-2,4(1H,3H)-dione] | A ("A" is defined as 0% ≤ substrate protein remaining % ≤ 80%) | B ("B" is defined as 80%< substrate protein remaining %≤ 100%) | A ("A" is defined as 0% ≤ substrate protein remaining % ≤ 80%) | B ("B" is defined as 80%< substrate protein remaining %≤ 100%) | B ("B" is defined as 80%< substrate protein remaining %≤ 100%) | A ("A" is defined as 0% ≤ substrate protein remaining % ≤ 80%)
O=C1CCN(N2Cc3cc(CN4CCC(c5ccc(F)cc5)CC4)ccc3C2=O)C(=O)N1 [GT-06890, 1-(5-((4-(4-fluorophenyl)piperidin-1-yl)methyl)-1-oxoisoindolin-2-yl)dihydropyrimidine-2,4(1H,3H)-dione] | A ("A" is defined as 0% ≤ substrate protein remaining % ≤ 80%) | B ("B" is defined as 80%< substrate protein remaining %≤ 100%) | B ("B" is defined as 80%< substrate protein remaining %≤ 100%) | B ("B" is defined as 80%< substrate protein remaining %≤ 100%) | B ("B" is defined as 80%< substrate protein remaining %≤ 100%) | A ("A" is defined as 0% ≤ substrate protein remaining % ≤ 80%)
O=C1CCN(N2Cc3cc(CN4CCC(c5ccccc5C(F)(F)F)CC4)ccc3C2=O)C(=O)N1 [GT-06891, 1-(1-oxo-5-((4-(2-(trifluoromethyl)phenyl)piperidin-1-yl)methyl)isoindolin-2-yl)dihydropyrimidine-2,4(1H,3H)-dione] | A ("A" is defined as 0% ≤ substrate protein remaining % ≤ 80%) | B ("B" is defined as 80%< substrate protein remaining %≤ 100%) | A ("A" is defined as 0% ≤ substrate protein remaining % ≤ 80%) | B ("B" is defined as 80%< substrate protein remaining %≤ 100%) | B ("B" is defined as 80%< substrate protein remaining %≤ 100%) | A ("A" is defined as 0% ≤ substrate protein remaining % ≤ 80%)
O=C1CCN(N2C(=O)c3ccc(CN4CCC(c5cccc(F)c5Cl)CC4)cc3C2=O)C(=O)N1 [GT-06895, 5-((4-(2-chloro-3-fluorophenyl)piperidin-1-yl)methyl)-2-(2,4-dioxotetrahydropyrimidin-1(2H)-yl)isoindoline-1,3-dione] | B ("B" is defined as 80%< substrate protein remaining %≤ 100%) | A ("A" is defined as 0% ≤ substrate protein remaining % ≤ 80%) | B ("B" is defined as 80%< substrate protein remaining %≤ 100%) | B ("B" is defined as 80%< substrate protein remaining %≤ 100%) | B ("B" is defined as 80%< substrate protein remaining %≤ 100%) | B ("B" is defined as 80%< substrate protein remaining %≤ 100%)
